#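 How tested: cells in 96-well plates exposed to compound for 48 hours at five concentrations. TGI is the concentration that stops growth completely.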
# Columns and labels:
# Assay in all cases: NCI-60 cell line screen, 48 h
# BT-549 breast = tested on: BT-549 breast
# HCT-15 colon = tested on: HCT-15 colon
# KM12 colon = tested on: KM12 colon
# MCF7 breast = tested on: MCF7 breast
# MOLT-4 leukemia = tested on: MOLT-4 leukemia
# NCI-H226 lung = tested on: NCI-H226 lung
# OVCAR-8 ovarian = tested on: OVCAR-8 ovarian
# PC-3 prostate = tested on: PC-3 prostate
# SK-MEL-5 melanoma = tested on: SK-MEL-5 melanoma
# U251 CNS = tested on: U251 CNS
# NCI-H460 lung = tested on: NCI-H460 lung
Structure (SMILES),TGI (BT-549 breast),TGI (HCT-15 colon),TGI (KM12 colon),TGI (MCF7 breast),TGI (MOLT-4 leukemia),TGI (NCI-H226 lung),TGI (OVCAR-8 ovarian),TGI (PC-3 prostate),TGI (SK-MEL-5 melanoma),TGI (U251 CNS),TGI (NCI-H460 lung)
O=C(/C=C/C=C/c1ccccc1)c1ccc2c(c1)CCCC2,77.4 µM,> 100 µM,> 100 µM,> 100 µM,87.6 µM,90.9 µM,> 100 µM,> 100 µM,> 100 µM,> 100 µM,
COC(=O)C1(OC(=O)Sc2ccccc2)CCN(C)CC1,7.04 µM,> 63.1 µM,> 47.4 µM,> 100 µM,> 39.8 µM,35.7 µM,52.7 µM,> 83.5 µM,> 70.4 µM,40.6 µM,58.1 µM
COc1ccc(C(=O)/C=C/c2ccncc2)cc1OC,18.6 µM,28.7 µM,,13.4 µM,86.7 µM,30.6 µM,28.6 µM,30.6 µM,30.7 µM,23.2 µM,
O=C(CCc1cc(O)cc(O)c1)NCCc1cc(O)cc(O)c1,> 100 µM,> 100 µM,> 100 µM,> 100 µM,> 100 µM,> 100 µM,> 100 µM,> 100 µM,> 100 µM,> 100 µM,> 100 µM
Nc1nc2c(ncn2Cc2ccc(CO)cc2)c(=O)[nH]1,> 100 µM,> 100 µM,> 100 µM,> 100 µM,> 100 µM,> 100 µM,> 100 µM,> 100 µM,> 100 µM,> 100 µM,> 100 µM
COc1ccc(-c2c(C#N)c(O)n(NS(=O)(=O)c3ccc(C)cc3)c(=O)c2C#N)cc1,> 100 µM,> 100 µM,> 100 µM,> 100 µM,66.1 µM,> 100 µM,> 100 µM,> 100 µM,> 100 µM,> 100 µM,> 100 µM
COc1ccc(CCN=C2OCc3ccccc32)cc1OC,> 100 µM,> 100 µM,> 100 µM,90.4 µM,> 100 µM,> 100 µM,> 100 µM,> 100 µM,> 100 µM,> 100 µM,> 100 µM
Cc1ccc(C(=O)N/N=C(\N=Nc2ccccc2[N+](=O)[O-])c2ccc(N(C)C)cc2)cc1,> 100 µM,> 100 µM,> 100 µM,> 100 µM,> 100 µM,> 100 µM,> 100 µM,> 100 µM,> 100 µM,> 100 µM,> 100 µM
COc1ccc(N2C(=O)CS(=O)(=O)C2c2cccc(Oc3ccccc3)c2)cc1 (configuration not stated),54.1 µM,55.2 µM,> 100 µM,4.72 µM,21.9 µM,52.6 µM,95.7 µM,51.9 µM,16.7 µM,22.1 µM,8.03 µM
O=S(=O)(O)c1ccc(N=Nc2ccc(N=Nc3c(O)ccc4ccccc34)cc2)cc1,> 100 µM,> 100 µM,> 100 µM,> 100 µM,> 100 µM,> 100 µM,> 100 µM,> 100 µM,> 100 µM,> 100 µM,> 100 µM
CC(NNC(=O)CC(=O)N(C(=O)c1ccccc1)c1ccc(Cl)cc1)c1cc2ccccc2oc1=O (configuration not stated),> 10 µM,> 10 µM,> 10 µM,> 10 µM,> 10 µM,> 10 µM,> 10 µM,> 10 µM,> 10 µM,> 10 µM,> 10 µM
C[C@@H]1C[C@](O)([C@@H](C)Cl)C(=O)O[C@@H]2CCN3CC=C(COC(=O)[C@]1(C)O)[C@H]23,> 100 µM,> 100 µM,> 100 µM,> 100 µM,,> 100 µM,> 100 µM,> 100 µM,> 100 µM,> 100 µM,> 10 µM
CC(C)(C)NC(=O)N1N=C(c2ccccc2)C1c1ccccc1 (configuration not stated),> 100 µM,75.2 µM,> 100 µM,> 100 µM,,> 100 µM,> 100 µM,56.5 µM,47 µM,> 100 µM,> 100 µM
CSc1nncc2[nH]c(C)nc12,> 100 µM,> 100 µM,> 100 µM,> 100 µM,> 100 µM,> 100 µM,> 100 µM,> 100 µM,> 100 µM,> 100 µM,
COC(=O)C1C=CN(N(C)C)C2=C1C(=O)c1c(O)cccc1C2=O (configuration not stated),3.86 µM,5.16 µM,6.95 µM,6.38 µM,,3.94 µM,7.4 µM,> 100 µM,1.77 µM,11.8 µM,3.03 µM
COc1ccc(C(OCC2OC(n3cc(C)c(=O)[nH]c3=O)CC2n2cc(Cn3cc(Br)c(=O)[nH]c3=O)nn2)(c2ccccc2)c2ccccc2)cc1 (configuration not stated),> 100 µM,> 100 µM,> 100 µM,> 100 µM,> 100 µM,> 100 µM,> 100 µM,> 100 µM,> 100 µM,> 100 µM,
CC(C)(C)c1cc(C(CO)OCCOCCO)cc(C(C)(C)C)c1O (configuration not stated),> 100 µM,> 100 µM,> 100 µM,> 100 µM,,> 100 µM,> 100 µM,> 100 µM,> 100 µM,> 100 µM,
